Assays:
Test in all cases: relative viability (nuclei count vs DMSO), 5 days (fraction); higher = more cells survive
[1] = compound: COc1cc2nc(N3CCCN(C)CC3)nc(NC3CCN(Cc4ccccc4)CC3)c2cc1OC + N=C(N)NC(=N)NCCc1ccccc1 [Phenformin] (partner 250 µM)
Outline: (§1)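 Five library-drug doses in √10 steps were combined with a fixed anchor-drug dose, or a single drug was given alone, by pin tool to lung cancer cell lines in 1536-well plates the day after seeding. Nuclei were stained and counted after 5 days. Relative viability is the nuclei count in treated wells over that in vehicle wells, taken as the median of duplicate plates.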

[2] = compound: Cc1cc([C@@H](C)Nc2ccccc2C(=O)O)c2nc(N3CCOCC3)cc(=O)n2c1 [AZD6482] + CS(=O)(=O)CCNCc1ccc(-c2ccc3ncnc(Nc4ccc(OCc5cccc(F)c5)c(Cl)c4)c3c2)o1 [Lapatinib] (partner 2 µM)
Outline: as §1

[3] = compound: COc1cc2nc(N3CCCN(C)CC3)nc(NC3CCN(Cc4ccccc4)CC3)c2cc1OC + O=C(CCCCCCC(=O)Nc1ccccc1)NO [Vorinostat] (partner 1 µM)
Outline: as §1

[4] = compound: Cc1cc([C@@H](C)Nc2ccccc2C(=O)O)c2nc(N3CCOCC3)cc(=O)n2c1 [AZD6482] + O=C(CCCCCCC(=O)Nc1ccccc1)NO [Vorinostat] (partner 1 µM)
Outline: as §1

In the case of NCI-H2347, the relative viability ([1]; first compound 0.2 µM) is reported as 0.399, the relative viability ([1]; first compound 0.6325 µM) is reported as 0.447 and the relative viability ([1]; first compound 2 µM) is reported as 0.555. For the same cell line, the relative viability ([1]; first compound 6.325 µM) was 0.408, the relative viability ([2]; first compound 0.253 µM) was 0.946 and the relative viability ([2]; first compound 0.8 µM) was 0.988. For the same cell line, the relative viability ([2]; first compound 2.53 µM) was 0.653, the relative viability ([2]; first compound 8 µM) was 0.763 and the relative viability ([3]; first compound 0.2 µM) was 0.712. It also gave a relative viability ([3]; first compound 0.6325 µM) of 0.725, a relative viability ([3]; first compound 2 µM) of 0.51 and a relative viability ([3]; first compound 6.325 µM) of 0.504. For the same cell line, the relative viability ([4]; first compound 0.08 µM) was 0.386, the relative viability ([4]; first compound 0.253 µM) was 0.516 and the relative viability ([4]; first compound 0.8 µM) was 0.522. The relative viability ([4]; first compound 2.53 µM) was 0.399 and the relative viability ([4]; first compound 8 µM) was 0.353.
Work on NCI-H1355 yielded a relative viability ([1]; first compound 0.2 µM) of 0.485, a relative viability ([1]; first compound 0.6325 µM) of 0.46 and a relative viability ([1]; first compound 2 µM) of 0.508. It also gave a relative viability ([1]; first compound 6.325 µM) of 0.463, a relative viability ([2]; first compound 0.08 µM) of 0.694 and a relative viability ([2]; first compound 0.253 µM) of 0.903. For the same cell line, the relative viability ([2]; first compound 0.8 µM) was 0.956, the relative viability ([2]; first compound 2.53 µM) was 0.678 and the relative viability ([2]; first compound 8 µM) was 0.717. The relative viability ([3]; first compound 0.2 µM) was 0.654, the relative viability ([3]; first compound 0.6325 µM) was 0.618 and the relative viability ([3]; first compound 2 µM) was 0.724. For the same cell line, the relative viability ([3]; first compound 6.325 µM) was 0.605, the relative viability ([4]; first compound 0.08 µM) was 0.446 and the relative viability ([4]; first compound 0.253 µM) was 0.541. It also gave a relative viability ([4]; first compound 0.8 µM) of 0.674, a relative viability ([4]; first compound 2.53 µM) of 0.447 and a relative viability ([4]; first compound 8 µM) of 0.407.
For NCI-H358, the relative viability ([1]; first compound 0.2 µM) was 0.318, the relative viability ([1]; first compound 0.6325 µM) was 0.522 and the relative viability ([1]; first compound 2 µM) was 0.296. The relative viability ([1]; first compound 6.325 µM) was 0.305, the relative viability ([2]; first compound 0.08 µM) was 0.443 and the relative viability ([2]; first compound 0.253 µM) was 0.417. It also gave a relative viability ([2]; first compound 0.8 µM) of 0.386, a relative viability ([2]; first compound 2.53 µM) of 0.258 and a relative viability ([2]; first compound 8 µM) of 0.365. It also gave a relative viability ([3]; first compound 0.2 µM) of 0.746, a relative viability ([3]; first compound 0.6325 µM) of 0.663 and a relative viability ([3]; first compound 2 µM) of 0.754. For the same cell line, the relative viability ([3]; first compound 6.325 µM) was 0.462, the relative viability ([4]; first compound 0.08 µM) was 0.494 and the relative viability ([4]; first compound 0.253 µM) was 0.648. For the same cell line, the relative viability ([4]; first compound 0.8 µM) was 0.672, the relative viability ([4]; first compound 2.53 µM) was 0.347 and the relative viability ([4]; first compound 8 µM) was 0.56.
Work on PC-3 [JPC-3] yielded a relative viability ([1]; first compound 0.2 µM) of 0.484, a relative viability ([1]; first compound 0.6325 µM) of 0.499 and a relative viability ([1]; first compound 2 µM) of 0.488. The relative viability ([1]; first compound 6.325 µM) was 0.521, the relative viability ([2]; first compound 0.08 µM) was 0.438 and the relative viability ([2]; first compound 0.253 µM) was 0.433. For the same cell line, the relative viability ([2]; first compound 0.8 µM) was 0.438, the relative viability ([2]; first compound 2.53 µM) was 0.349 and the relative viability ([2]; first compound 8 µM) was 0.422. The relative viability ([3]; first compound 0.2 µM) was 0.625, the relative viability ([3]; first compound 0.6325 µM) was 0.926 and the relative viability ([3]; first compound 2 µM) was 0.781. For the same cell line, the relative viability ([3]; first compound 6.325 µM) was 0.707, the relative viability ([4]; first compound 0.08 µM) was 0.766 and the relative viability ([4]; first compound 0.253 µM) was 0.797. For the same cell line, the relative viability ([4]; first compound 0.8 µM) was 0.84, the relative viability ([4]; first compound 2.53 µM) was 0.457 and the relative viability ([4]; first compound 8 µM) was 0.571.
NCI-H2228 was tested, and the relative viability ([1]; first compound 0.2 µM) was 0.271, the relative viability ([1]; first compound 0.6325 µM) was 0.298 and the relative viability ([1]; first compound 2 µM) was 0.224. For the same cell line, the relative viability ([1]; first compound 6.325 µM) was 0.141, the relative viability ([2]; first compound 0.08 µM) was 0.834 and the relative viability ([2]; first compound 0.253 µM) was 0.994. It also gave a relative viability ([2]; first compound 0.8 µM) of 0.971, a relative viability ([2]; first compound 2.53 µM) of 0.662 and a relative viability ([2]; first compound 8 µM) of 0.715. The relative viability ([3]; first compound 0.2 µM) was 0.37, the relative viability ([3]; first compound 0.6325 µM) was 0.662 and the relative viability ([3]; first compound 2 µM) was 0.54. For the same cell line, the relative viability ([3]; first compound 6.325 µM) was 0.25, the relative viability ([4]; first compound 0.08 µM) was 0.482 and the relative viability ([4]; first compound 0.253 µM) was 0.302. The relative viability ([4]; first compound 0.8 µM) was 0.798, the relative viability ([4]; first compound 2.53 µM) was 0.555 and the relative viability ([4]; first compound 8 µM) was 0.904.
Work on HOP-62 yielded a relative viability ([1]; first compound 0.2 µM) of 0.684, a relative viability ([1]; first compound 0.6325 µM) of 0.629 and a relative viability ([1]; first compound 2 µM) of 0.721. The relative viability ([1]; first compound 6.325 µM) was 0.641, the relative viability ([2]; first compound 0.08 µM) was 1.06 and the relative viability ([2]; first compound 0.253 µM) was 0.856. For the same cell line, the relative viability ([2]; first compound 0.8 µM) was 1.32, the relative viability ([2]; first compound 2.53 µM) was 0.827 and the relative viability ([2]; first compound 8 µM) was 1.1. The relative viability ([3]; first compound 0.2 µM) was 0.658, the relative viability ([3]; first compound 0.6325 µM) was 0.366 and the relative viability ([3]; first compound 2 µM) was 0.638. The relative viability ([3]; first compound 6.325 µM) was 0.435, the relative viability ([4]; first compound 0.08 µM) was 0.613 and the relative viability ([4]; first compound 0.253 µM) was 0.583. For the same cell line, the relative viability ([4]; first compound 0.8 µM) was 0.615, the relative viability ([4]; first compound 2.53 µM) was 0.408 and the relative viability ([4]; first compound 8 µM) was 0.473.
Work on HARA yielded a relative viability ([1]; first compound 0.2 µM) of 0.474, a relative viability ([1]; first compound 0.6325 µM) of 0.425 and a relative viability ([1]; first compound 2 µM) of 0.494. For the same cell line, the relative viability ([1]; first compound 6.325 µM) was 0.462, the relative viability ([2]; first compound 0.08 µM) was 0.707 and the relative viability ([2]; first compound 0.253 µM) was 0.503. For the same cell line, the relative viability ([2]; first compound 0.8 µM) was 0.919, the relative viability ([2]; first compound 8 µM) was 0.483 and the relative viability ([3]; first compound 0.2 µM) was 0.584. The relative viability ([3]; first compound 0.6325 µM) was 0.63, the relative viability ([3]; first compound 2 µM) was 0.515 and the relative viability ([3]; first compound 6.325 µM) was 0.51. It also gave a relative viability ([4]; first compound 0.08 µM) of 0.557, a relative viability ([4]; first compound 0.253 µM) of 0.574 and a relative viability ([4]; first compound 0.8 µM) of 0.465. The relative viability ([4]; first compound 2.53 µM) was 0.357 and the relative viability ([4]; first compound 8 µM) was 0.437.
NCI-H838 gave a relative viability ([1]; first compound 0.2 µM) of 0.769, a relative viability ([1]; first compound 0.6325 µM) of 0.776 and a relative viability ([1]; first compound 2 µM) of 0.576. For the same cell line, the relative viability ([1]; first compound 6.325 µM) was 0.502, the relative viability ([2]; first compound 0.08 µM) was 0.776 and the relative viability ([2]; first compound 0.253 µM) was 0.783. The relative viability ([2]; first compound 0.8 µM) was 0.894, the relative viability ([2]; first compound 2.53 µM) was 0.482 and the relative viability ([2]; first compound 8 µM) was 0.6. The relative viability ([3]; first compound 0.2 µM) was 0.772, the relative viability ([3]; first compound 0.6325 µM) was 0.695 and the relative viability ([3]; first compound 2 µM) was 0.938. The relative viability ([3]; first compound 6.325 µM) was 0.626, the relative viability ([4]; first compound 0.08 µM) was 0.631 and the relative viability ([4]; first compound 0.253 µM) was 0.701. For the same cell line, the relative viability ([4]; first compound 0.8 µM) was 0.664, the relative viability ([4]; first compound 2.53 µM) was 0.54 and the relative viability ([4]; first compound 8 µM) was 0.538.
With NCI-H1755 the relative viability ([1]; first compound 0.2 µM) was 0.604, the relative viability ([1]; first compound 0.6325 µM) was 0.628 and the relative viability ([1]; first compound 2 µM) was 0.58. The relative viability ([1]; first compound 6.325 µM) was 0.574, the relative viability ([2]; first compound 0.08 µM) was 0.955 and the relative viability ([2]; first compound 0.253 µM) was 0.969. For the same cell line, the relative viability ([2]; first compound 0.8 µM) was 1.03, the relative viability ([2]; first compound 2.53 µM) was 0.704 and the relative viability ([2]; first compound 8 µM) was 0.749. For the same cell line, the relative viability ([3]; first compound 0.2 µM) was 0.777, the relative viability ([3]; first compound 0.6325 µM) was 0.67 and the relative viability ([3]; first compound 2 µM) was 0.759. For the same cell line, the relative viability ([3]; first compound 6.325 µM) was 0.573, the relative viability ([4]; first compound 0.08 µM) was 0.691 and the relative viability ([4]; first compound 0.253 µM) was 0.638. For the same cell line, the relative viability ([4]; first compound 0.8 µM) was 0.742, the relative viability ([4]; first compound 2.53 µM) was 0.495 and the relative viability ([4]; first compound 8 µM) was 0.566.

Reference: the supplement of paper PMC10307832
